For one assay, the system named is C. albicans ATCC 10231. Nature of the assay: Time-kill kinetics. In kind it is cell-based, Candida albicans. The procedure:
As mentioned for antibacterial activity, time-kill plots allow the evaluation of killing of a microbial isolate over time and establishing how much exposure time is needed in order to achieve a fungicidal effect, which is usually defined by ≥99.9% killing of the initial inoculum and is determined by a 3-log10-unit decrease in CFU/mL. […] Time-kill kinetics of compound 1 were evaluated for C. albicans ATCC 10231.
Determination of killing of C. albicans ATCC 10231 over time was carried out using the time-kill method, as previously described. This assay was performed for concentrations of compound 1 ranging between 64 and 8 μg/mL. Colonies from 24 h cultures in SDA were suspended in sterile saline and adjusted to 0.5 McFarland. An aliquot of this suspension was then added to each tube of RPMI alone (control) or RPMI plus an appropriate amount of compound 1, to give an inoculum of approximately 10^5 CFU/mL in a final volume of 10 mL. Tubes were incubated at 36° C. in a water bath with shaking and vortexed prior to removing each sample for the determination of colony counts. At predetermined time points (30 min, 1, 1.5, 2, 3, 4, 6, 8, and 12 h), 100 μL aliquots were aseptically removed from each tube, serially diluted in sterile saline, and spread on SDA plates. Colony counts were determined following incubation at 36° C. for 24 to 48 h and log10 CFU/mL was plotted against time. At least three independent experiments were performed.

In assay [1] the test system is marine biofilm-forming bacterial strains. The settings on record: cited from earlier work.
The test system of a further assay is E. faecalis ATCC 29212. Description: Bacterial biofilm formation inhibition (crystal violet). In kind it is cell-based, Enterococcus faecalis. The method, then:
In an embodiment, the antibiofilm activity of compound 1 was performed as follows. Given its bactericidal effect, the impact of compound 1 on the biofilm formation of reference strains was studied.
The effect of compound 1 on bacterial biofilm formation was evaluated through quantification of total biomass, using the crystal violet method, as previously described ([FIG. 6]). […] A control with an appropriate concentration of DMSO, as well as a negative control (TSB alone) was included. Sterile 96-well flat-bottomed untreated polystyrene microtiter plates were used. After a 24 h incubation at 37 degrees C., the biofilms were heat-fixed for 1 h at 60 degrees C. and stained with 0.5% (v/v) crystal violet (Quimica Clinica Aplicada, Amposta, Spain) for 5 min. The stain was resolubilized with 33% (v/v) acetic acid (Acetic acid 100%, AppliChem, Darmstadt, Germany) and the biofilm biomass was quantified by measuring the absorbance of each sample at 570 nm in a microplate reader (Thermo Scientific Multiskan® EX, Thermo Fisher Scientific, Waltham, MA, USA). The background absorbance (TSB or TSB+1% glucose without inoculum) was subtracted from the absorbance of each sample and the data are presented as a percentage of control. Three independent assays were performed for reference strains, with triplicates for each experimental condition.

In a further assay the test system is E. coli ATCC 25922. Description: Time-kill kinetics. The assay is classed as cell-based, Escherichia coli. The procedure:
The present disclosure relates to antibacterial mechanism of action of the compound 1 herein disclosed. In an embodiment, the evaluation of time-kill kinetics was performed as follows. Time-kill kinetics of compound 1 were evaluated for E. coli ATCC 25922, allowing the confirmation of its bactericidal effect. This is usually determined when ≥99.9% killing of the initial inoculum occurs and is determined by a 3-log10-unit decrease in CFU/mL.
The effect of compound 1 concentrations ranging between 64 and 8 μg/mL was evaluated. The bacterial inoculum was prepared by suspending colonies from overnight cultures (grown in MHA) in CAMHB, and an aliquot of this suspension was added to each tube of CAMHB alone (control) or CAMHB plus an appropriate amount of compound 1, to give an inoculum of approximately 5×10^5 CFU/mL, in a final volume of 10 mL. Tubes were incubated at 37 degrees C. in a water bath with shaking. At predetermined time points (30 min, 1, 1.5, 2, 3, 4, 6, 8, 12, and 24 h), 100 μL aliquots were aseptically removed from each tube, after vortexing, serially diluted in buffered peptone water (Biokar Diagnostics, Allone, Beauvais, France), if necessary, and spread on MHA. Colony counts were determined following overnight incubation at 37 degrees C. and log10 CFU/mL was plotted against time. Three independent experiments were performed.

The next assay concerns E. faecalis B3/101. Description: Checkerboard synergy with VAN. The assay is classed as cell-based, Enterococcus faecalis. The method, then: The combined effect of compound 1 and CTX for E. coli SA/2, VAN for E. faecalis B3/101, COL for E. coli 2252, erythromycin for E. coli ATCC 25922, and OXA for S. aureus 66/1 was evaluated by the checkerboard method. […] The interaction between compound 1 and erythromycin was assessed for E. coli ATCC 25922. Gram-negative bacteria are intrinsically resistant to erythromycin, a macrolide that inhibits protein synthesis, and cannot penetrate the outer membrane of Gram-negative bacteria, which is impermeable to hydrophobic antibiotics. Ascertain ceragenins have been previously described to be able to enhance the efficacy of such antibiotics, this possibility was investigated for compound 1 and a FICI of 0.6 was obtained.

The structures appear in SMILES notation. Some results are limits rather than exact numbers.

For `C[C@H](CCC(=O)NCCN)[C@H]1CC[C@H]2[C@@H]3CC[C@@H]4C[C@H](O)CC[C@]4(C)[C@H]3C[C@H](O)[C@]12C` [Compound 1, (R)—N-(2-aminoethyl)-4-((3R,5R,8R,9S,10S,12S,13R,14S,17R)-3,12-dihydroxy-10,13-dimethylhexadecahydro-1H-cyclopenta[a]phenanthren-17-yl) pentanamida], the “exposure time to fungicidal effect (≥99.9% killing)” value in the assay with C. albicans ATCC 10231 (64 μg/mL (MIC)) is “approximately 4 h”. In addition, the “additional time to produce an additional 1-log10-unit decrease in CFU/mL” value with C. albicans ATCC 10231 (64 μg/mL, after the first 2 h) amounted to 10 h. For the same molecule, the “decrease in CFU/mL each hour” value with C. albicans ATCC 10231 (64 μg/mL, until 2 h of exposure) came out at 1 log10-unit. Moreover, the “type of killing (in words)” value in the assay with C. albicans ATCC 10231 (64-8 μg/mL) and in the assay on E. coli ATCC 25922 (64-8 μg/mL) was “concentration-dependent killing” in each case. Moreover, in assay [1], the “activity against growth of marine biofilm-forming bacterial strains (in words)” value was “active”. The “biofilm formation (in words)” value with E. faecalis ATCC 29212 (2×MIC and MIC, 24 h) is “significantly inhibited”. In the assay on E. faecalis ATCC 29212 (80% reduction of biofilm formation, E. faecalis ATCC 29212), the “minimal biofilm inhibitory concentration (MBIC)” value was less than 4 µg/mL. The “exposure time to bactericidal activity (≥99.9% killing)” value with E. coli ATCC 25922 (64 μg/mL (2×MIC)) is “approximately 1 h”. Moreover, in the assay on E. coli ATCC 25922 (64 μg/mL, after 30 min of exposure), the “decrease in CFU/mL” value stood at 2 log10-unit. In addition, in the assay on E. faecalis B3/101, the “combined effect with VAN (in words)” value was “No synergistic interactions”.

The values are drawn from patent US20250002450A1, “CATIONIC STEROID COMPOUNDS, METHOD OF OBTAINING THEREOF, FORMULATIONS COMPRISING THEREOF AND THEIR USES” (UNIVERSIDADE DO PORTO, priority 2021, published 2025).
